Source: PubChem BioAssay (NCI)
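Assay format: 96-well plates, 48-hour exposure. At the GI50, growth is halved. TGI marks complete inhibition of growth.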

What was measured:
Assay in all cases: growth of human tumour cells (NCI), 48 h
MCF7 breast = test system: MCF7 breast
NCI-H23 lung = test system: NCI-H23 lung
T-47D breast = test system: T-47D breast
SK-MEL-28 melanoma = test system: SK-MEL-28 melanoma
HCT-116 colon = test system: HCT-116 colon
M14 melanoma = test system: M14 melanoma
MALME-3M melanoma = test system: MALME-3M melanoma
OVCAR-4 ovarian = test system: OVCAR-4 ovarian
MOLT-4 leukemia = test system: MOLT-4 leukemia
CAKI-1 renal = test system: CAKI-1 renal
MDA-MB-231 breast = test system: MDA-MB-231 breast
SNB-75 CNS = test system: SNB-75 CNS
TK-10 renal = test system: TK-10 renal
EKVX NSCLC = test system: EKVX NSCLC
PC-3 prostate = test system: PC-3 prostate
KM12 colon = test system: KM12 colon
HOP-92 NSCLC = test system: HOP-92 NSCLC
LOX IMVI melanoma = test system: LOX IMVI melanoma
RXF 393 renal = test system: RXF 393 renal
UO-31 renal = test system: UO-31 renal
NCI/ADR-RES ovarian = test system: NCI/ADR-RES ovarian
OVCAR-8 ovarian = test system: OVCAR-8 ovarian
NCI-H226 lung = test system: NCI-H226 lung
ACHN renal = test system: ACHN renal
UACC-257 melanoma = test system: UACC-257 melanoma
SF-268 CNS = test system: SF-268 CNS
COLO 205 colon = test system: COLO 205 colon
OVCAR-5 ovarian = test system: OVCAR-5 ovarian
A549 NSCLC = test system: A549 NSCLC
OVCAR-3 ovarian = test system: OVCAR-3 ovarian
HL-60(TB) leukemia = test system: HL-60(TB) leukemia
HT29 colon = test system: HT29 colon
IGROV1 ovarian = test system: IGROV1 ovarian
K-562 leukemia = test system: K-562 leukemia
SK-OV-3 ovarian = test system: SK-OV-3 ovarian
MDA-MB-435 = test system: MDA-MB-435
BT-549 breast = test system: BT-549 breast
NCI-H460 lung = test system: NCI-H460 lung
NCI-H522 lung = test system: NCI-H522 lung
UACC-62 melanoma = test system: UACC-62 melanoma
786-0 renal = test system: 786-0 renal
SW-620 colon = test system: SW-620 colon
U251 CNS = test system: U251 CNS
SNB-19 CNS = test system: SNB-19 CNS
HS 578T breast = test system: HS 578T breast
SK-MEL-5 melanoma = test system: SK-MEL-5 melanoma
HCT-15 colon = test system: HCT-15 colon
CCRF-CEM leukemia = test system: CCRF-CEM leukemia
SK-MEL-2 melanoma = test system: SK-MEL-2 melanoma
RPMI-8226 leukemia = test system: RPMI-8226 leukemia
HOP-62 NSCLC = test system: HOP-62 NSCLC
DU-145 prostate = test system: DU-145 prostate
SN12C renal = test system: SN12C renal
SF-295 CNS = test system: SF-295 CNS
SF-539 CNS = test system: SF-539 CNS

Work on COc1ccc(OC)c(-c2nc3sccn3c2/C=C2/C(=O)Nc3ccccc32)c1 yielded a GI50 (MCF7 breast) of 476 nM, a TGI (MCF7 breast) of over 35700 nM and a GI50 (NCI-H23 lung) of 255 nM. For the same compound, the TGI (NCI-H23 lung) was 1690 nM, the GI50 (T-47D breast) was 7820 nM and the TGI (T-47D breast) was over 49400 nM. The GI50 (SK-MEL-28 melanoma) was 1960 nM, the TGI (SK-MEL-28 melanoma) was 25200 nM and the GI50 (HCT-116 colon) was 142 nM. For the same compound, the TGI (HCT-116 colon) was 1520 nM, the GI50 (M14 melanoma) was 323 nM and the TGI (M14 melanoma) was 1410 nM. It also gave a GI50 (MALME-3M melanoma) of 979 nM, a TGI (MALME-3M melanoma) of 21200 nM and a GI50 (OVCAR-4 ovarian) of 3010 nM. The TGI (OVCAR-4 ovarian) was over 38700 nM, the GI50 (MOLT-4 leukemia) was 47.2 nM and the TGI (MOLT-4 leukemia) was 18400 nM. For the same compound, the GI50 (CAKI-1 renal) was 506 nM, the TGI (CAKI-1 renal) was 8680 nM and the GI50 (MDA-MB-231 breast) was 2110 nM. The TGI (MDA-MB-231 breast) was 25300 nM, the GI50 (SNB-75 CNS) was 2950 nM and the TGI (SNB-75 CNS) was over 100000 nM. It also gave a GI50 (TK-10 renal) of 1290 nM, a TGI (TK-10 renal) of 20200 nM and a GI50 (EKVX NSCLC) of 2510 nM. The TGI (EKVX NSCLC) was 27700 nM, the GI50 (PC-3 prostate) was 359 nM and the TGI (PC-3 prostate) was 14200 nM. The GI50 (KM12 colon) was 119 nM, the TGI (KM12 colon) was 2060 nM and the GI50 (HOP-92 NSCLC) was 822 nM. It also gave a TGI (HOP-92 NSCLC) of 19100 nM, a GI50 (LOX IMVI melanoma) of 2820 nM and a TGI (LOX IMVI melanoma) of 35100 nM. The GI50 (RXF 393 renal) was 553 nM, the TGI (RXF 393 renal) was 17900 nM and the GI50 (UO-31 renal) was 1100 nM. The TGI (UO-31 renal) was over 41000 nM, the GI50 (NCI/ADR-RES ovarian) was 1420 nM and the TGI (NCI/ADR-RES ovarian) was 7760 nM. It also gave a GI50 (OVCAR-8 ovarian) of 945 nM, a TGI (OVCAR-8 ovarian) of over 46500 nM and a GI50 (NCI-H226 lung) of 1400 nM. It also gave a TGI (NCI-H226 lung) of 4890 nM, a GI50 (ACHN renal) of 610 nM and a TGI (ACHN renal) of 15900 nM. The GI50 (UACC-257 melanoma) was 11600 nM, the TGI (UACC-257 melanoma) was 34700 nM and the GI50 (SF-268 CNS) was 1330 nM. For the same compound, the TGI (SF-268 CNS) was 24200 nM, the GI50 (COLO 205 colon) was 595 nM and the GI50 (OVCAR-5 ovarian) was 437 nM. The TGI (OVCAR-5 ovarian) was 12800 nM, the GI50 (A549 NSCLC) was 849 nM and the TGI (A549 NSCLC) was over 60200 nM. For the same compound, the GI50 (OVCAR-3 ovarian) was 235 nM, the TGI (OVCAR-3 ovarian) was 586 nM and the GI50 (HL-60(TB) leukemia) was 52.4 nM. It also gave a TGI (HL-60(TB) leukemia) of 26500 nM, a GI50 (HT29 colon) of 355 nM and a GI50 (IGROV1 ovarian) of 2100 nM. For the same compound, the TGI (IGROV1 ovarian) was over 86100 nM, the GI50 (K-562 leukemia) was 490 nM and the TGI (K-562 leukemia) was over 100000 nM. It also gave a GI50 (SK-OV-3 ovarian) of 584 nM, a TGI (SK-OV-3 ovarian) of 6360 nM and a GI50 (MDA-MB-435) of 111 nM. It also gave a TGI (MDA-MB-435) of 293 nM, a GI50 (BT-549 breast) of 335 nM and a TGI (BT-549 breast) of 3130 nM. The GI50 (NCI-H460 lung) was 511 nM, the TGI (NCI-H460 lung) was over 37600 nM and the GI50 (NCI-H522 lung) was 294 nM. The TGI (NCI-H522 lung) was 17300 nM, the GI50 (UACC-62 melanoma) was 293 nM and the TGI (UACC-62 melanoma) was 12800 nM. It also gave a GI50 (786-0 renal) of 273 nM, a TGI (786-0 renal) of 18600 nM and a GI50 (SW-620 colon) of 506 nM. The TGI (SW-620 colon) was 21400 nM, the GI50 (U251 CNS) was 1060 nM and the TGI (U251 CNS) was 15000 nM. The GI50 (SNB-19 CNS) was 1720 nM, the TGI (SNB-19 CNS) was over 22700 nM and the GI50 (HS 578T breast) was 415 nM. It also gave a TGI (HS 578T breast) of 2300 nM, a TGI (SK-MEL-5 melanoma) of 997 nM and a GI50 (HCT-15 colon) of 434 nM. It also gave a TGI (HCT-15 colon) of 14800 nM, a GI50 (CCRF-CEM leukemia) of 273 nM and a TGI (CCRF-CEM leukemia) of 5370 nM. The GI50 (SK-MEL-2 melanoma) was 713 nM, the TGI (SK-MEL-2 melanoma) was 29400 nM and the GI50 (RPMI-8226 leukemia) was 241 nM. It also gave a TGI (RPMI-8226 leukemia) of 856 nM, a GI50 (HOP-62 NSCLC) of 123 nM and a TGI (HOP-62 NSCLC) of 4410 nM. It also gave a GI50 (DU-145 prostate) of 2100 nM, a TGI (DU-145 prostate) of 26500 nM and a GI50 (SN12C renal) of 4650 nM. It also gave a TGI (SN12C renal) of 33800 nM, a GI50 (SF-295 CNS) of 248 nM and a TGI (SF-295 CNS) of 635 nM.
Cc1c2c(cc[n+]1Cc1ccccc1)c1ccc(OCC3CCCCC3)cc1n2CC1CCCCC1 was tested, and the GI50 (MCF7 breast) was 306 nM, the TGI (MCF7 breast) was 1110 nM and the GI50 (T-47D breast) was 560 nM. For the same compound, the TGI (T-47D breast) was 1790 nM, the GI50 (SK-MEL-28 melanoma) was 590 nM and the TGI (SK-MEL-28 melanoma) was 1880 nM. The GI50 (OVCAR-4 ovarian) was 235 nM, the TGI (OVCAR-4 ovarian) was 735 nM and the GI50 (CAKI-1 renal) was 1280 nM. For the same compound, the TGI (CAKI-1 renal) was 2640 nM, the GI50 (SNB-75 CNS) was 293 nM and the TGI (SNB-75 CNS) was 1470 nM. The GI50 (NCI/ADR-RES ovarian) was 1750 nM, the TGI (NCI/ADR-RES ovarian) was 4290 nM and the GI50 (OVCAR-8 ovarian) was 364 nM. The TGI (OVCAR-8 ovarian) was 1350 nM, the GI50 (ACHN renal) was 1240 nM and the TGI (ACHN renal) was 2530 nM. The GI50 (SF-539 CNS) was 1490 nM, the TGI (SF-539 CNS) was 2880 nM and the GI50 (UACC-257 melanoma) was 299 nM. For the same compound, the TGI (UACC-257 melanoma) was 961 nM, the GI50 (IGROV1 ovarian) was 525 nM and the TGI (IGROV1 ovarian) was 2510 nM. For the same compound, the GI50 (SK-OV-3 ovarian) was 506 nM, the TGI (SK-OV-3 ovarian) was 1560 nM and the GI50 (NCI-H522 lung) was 261 nM. For the same compound, the TGI (NCI-H522 lung) was 788 nM, the GI50 (UACC-62 melanoma) was 342 nM and the TGI (UACC-62 melanoma) was 1280 nM. It also gave a GI50 (HS 578T breast) of 525 nM, a TGI (HS 578T breast) of 4060 nM and a GI50 (CCRF-CEM leukemia) of 207 nM. The TGI (CCRF-CEM leukemia) was 787 nM.
